Results from US20130137772A1, “HYDROXYPOLYAMINE SALTS” (priority 2011, published 2013).
Values joined by “and” are separate entries in the source; they are usually repeats but may differ in a detail not shown here. Equal entries are not always repeated.

What was measured:
[1] = Tissue distribution and metabolism: polyamine content of kidney, liver and pancreas via HPLC; type: in vivo, Female CD-1 mice; conditions: DEHSPM 18.6 mg/kg/d IP x 5 d
Method: The tissue distribution and metabolism of DEHSPM, (HO)2DEHSPM HCl Salt and (HO)2DEHSPM Mesylate Salt in various organs were evaluated utilizing the following protocol:
Tissue Distribution and Metabolism of DEHSPM, (HO)2DEHSPM HCl Salt and (HO)2DEHSPM Mesylate Salt
• 1) DEHSPM, (HO)2DEHSPM HCl salt, and (HO)2DEHSPM mesylate salt were dissolved in sterile normal saline; the pH was not adjusted. • 2) Female CD-1 mice were given the drugs at equimolar dosages intraperitoneally once daily for 5 days. • 3) The animals, n=3-4 per group, were euthanized 4, 8, or 24 h post-last dose. • 4) The kidney, liver, and pancreas were removed and assessed for their polyamine content via HPLC analysis. • 5) The polyamine concentration data (mean±STD) are expressed as nmol/g wet weight of tissue. SPM, spermine; SPD, spermidine; PUT, putrescine; N.D., not determined. • 6) A one-tailed t test assuming unequal variance was performed on the tissue polyamine concentration data. A value of p<0.05 was considered significant.

[2] = mice, three weeks after a seven day schedule; cited from earlier work

CCNCCCCNCCCCNCCCCNCC [DEHSPM, Diethylhomospermine, reference compound]
DEHSPM concentration ([1]; kidney, 4 h post-last dose): 428 ± 95 nmol/g wet weight of tissue | PUT concentration ([1]; kidney, 4 h post-last dose): 0 ± 0 nmol/g wet weight of tissue | SPD concentration ([1]; kidney, 4 h post-last dose): 270 ± 61 nmol/g wet weight of tissue | SPM concentration ([1]; kidney, 4 h post-last dose): 243 ± 49 nmol/g wet weight of tissue | DEHSPM concentration ([1]; kidney, 8 h post-last dose): 425 ± 82 nmol/g wet weight of tissue | PUT concentration ([1]; kidney, 8 h post-last dose): 0 ± 0 nmol/g wet weight of tissue | SPD concentration ([1]; kidney, 8 h post-last dose): 159 ± 4 nmol/g wet weight of tissue | SPM concentration ([1]; kidney, 8 h post-last dose): 240 ± 52 nmol/g wet weight of tissue | DEHSPM concentration ([1]; kidney, 24 h post-last dose): 260 ± 19 nmol/g wet weight of tissue | PUT concentration ([1]; kidney, 24 h post-last dose): 0 ± 0 nmol/g wet weight of tissue | SPD concentration ([1]; kidney, 24 h post-last dose): 150 ± 37 nmol/g wet weight of tissue | SPM concentration ([1]; kidney, 24 h post-last dose): 223 ± 61 nmol/g wet weight of tissue | DEHSPM concentration ([1]; liver, 4 h post-last dose): 148 ± 46 nmol/g wet weight of tissue | PUT concentration ([1]; liver, 4 h post-last dose): 0 ± 0 nmol/g wet weight of tissue | SPD concentration ([1]; liver, 4 h post-last dose): 540 ± 77 nmol/g wet weight of tissue | SPM concentration ([1]; liver, 4 h post-last dose): 764 ± 49 nmol/g wet weight of tissue | DEHSPM concentration ([1]; liver, 8 h post-last dose): 144 ± 7 nmol/g wet weight of tissue | PUT concentration ([1]; liver, 8 h post-last dose): 0 ± 0 nmol/g wet weight of tissue | SPD concentration ([1]; liver, 8 h post-last dose): 710 nmol/g wet weight of tissue and 710 ± 132 nmol/g wet weight of tissue | SPM concentration ([1]; liver, 8 h post-last dose): 899 ± 40 nmol/g wet weight of tissue | DEHSPM concentration ([1]; liver, 24 h post-last dose): 79 ± 10 nmol/g wet weight of tissue | PUT concentration ([1]; liver, 24 h post-last dose): 21 ± 15 nmol/g wet weight of tissue | SPD concentration ([1]; liver, 24 h post-last dose): 578 nmol/g wet weight of tissue and 578 ± 150 nmol/g wet weight of tissue | SPM concentration ([1]; liver, 24 h post-last dose): 809 ± 45 nmol/g wet weight of tissue | DEHSPM concentration ([1]; pancreas, 4 h post-last dose): 330 ± 37 nmol/g wet weight of tissue | PUT concentration ([1]; pancreas, 4 h post-last dose): 43 ± 10 nmol/g wet weight of tissue | SPD concentration ([1]; pancreas, 4 h post-last dose): 6054 nmol/g wet weight of tissue and 6054 ± 878 nmol/g wet weight of tissue | SPM concentration ([1]; pancreas, 4 h post-last dose): 1000 nmol/g wet weight of tissue and 1000 ± 124 nmol/g wet weight of tissue | DEHSPM concentration ([1]; pancreas, 8 h post-last dose): 339 ± 59 nmol/g wet weight of tissue | PUT concentration ([1]; pancreas, 8 h post-last dose): 66 ± 33 nmol/g wet weight of tissue | SPD concentration ([1]; pancreas, 8 h post-last dose): 5789 nmol/g wet weight of tissue and 5789 ± 339 nmol/g wet weight of tissue | SPM concentration ([1]; pancreas, 8 h post-last dose): 1033 nmol/g wet weight of tissue and 1033 ± 290 nmol/g wet weight of tissue | DEHSPM concentration ([1]; pancreas, 24 h post-last dose): 284 ± 50 nmol/g wet weight of tissue | PUT concentration ([1]; pancreas, 24 h post-last dose): 62 ± 29 nmol/g wet weight of tissue | SPD concentration ([1]; pancreas, 24 h post-last dose): 5807 nmol/g wet weight of tissue and 5807 ± 262 nmol/g wet weight of tissue | SPM concentration ([1]; pancreas, 24 h post-last dose): 1146 nmol/g wet weight of tissue and 1146 ± 107 nmol/g wet weight of tissue | drug administered remaining in the liver and kidney as drug or metabolites [2]: 35% | drug remaining in the animal in the form of HSPM [2]: 90%
